Test results: ChEMBL document CHEMBL4507318, “Data for DCP probe BAY-985” (2021)
Active and inactive are the calls of the source. No cut-off for these calls is given here.

Key:
[1] = molecular target: Macrophage colony-stimulating factor 1 receptor (Homo sapiens) (UniProt P07333)
[2] = molecular target: Mast/stem cell growth factor receptor Kit (Homo sapiens) (UniProt P10721)
[3] = system: Tyrosine-protein kinase ABL1 (Homo sapiens), P00519 [H396P]
[4] = molecular target: T1, 5-hydroxytryptamine receptor 2B (Homo sapiens, UniProt P41595); details: Compound concentration 10.0 uM
[5] = molecular target: 5-hydroxytryptamine receptor 2A (Homo sapiens) (UniProt P28223); details: Compound concentration 10.0 uM
[6] = molecular target: Calcium/calmodulin-dependent protein kinase type II subunit gamma (Homo sapiens) (UniProt Q13555)
[7] = molecular target: Mitogen-activated protein kinase kinase kinase 5 (Homo sapiens) (UniProt Q99683)
[8] = molecular target: Dual specificity protein kinase CLK1 (Homo sapiens) (UniProt P49759)
[9] = molecular target: MAP/microtubule affinity-regulating kinase 4 (Homo sapiens) (UniProt Q96L34)
[10] = molecular target: MAP kinase-activated protein kinase 5 (Homo sapiens) (UniProt Q8IW41)
[11] = molecular target: Tyrosine-protein kinase Yes (Homo sapiens) (UniProt P07947)
[12] = molecular target: RAC-alpha serine/threonine-protein kinase (Homo sapiens) (UniProt P31749)
[13] = molecular target: Phosphorylase b kinase regulatory subunit alpha, liver isoform (Homo sapiens) (UniProt P46019)
[14] = system: Serine/threonine-protein kinase B-raf (Homo sapiens), P15056 [V600E]
[15] = system: ALK tyrosine kinase receptor (Homo sapiens), Q9UM73 [L1196M]
[16] = molecular target: Bone morphogenetic protein receptor type-2 (Homo sapiens) (UniProt Q13873)
[17] = molecular target: Inhibitor of nuclear factor kappa-B kinase subunit epsilon (Homo sapiens, UniProt Q14164); experiment: cell-based
[18] = molecular target: T1, 5-hydroxytryptamine receptor 2B; experiment: GPCRScan assay: inhibition of 5-HT2B; parameters: radioligand conc. used [nm] 1.0 – 2.0, parental cells stable HEK
[19] = molecular target: GABA-A receptor; anion channel (Rattus norvegicus) (UniProt O09028+P15431+P18506+P18508+P19969+P20236+P23574+P23576+P28471+P28473+P30191+P62813+P63079+P63138+Q91ZM7+Q9ES14); details: Compound concentration 10.0 uM
[20] = molecular target: Serine/threonine-protein kinase 17A (Homo sapiens, UniProt Q9UEE5); experiment: NanoBRET with STK17A
[21] = molecular target: Sodium-dependent dopamine transporter (Homo sapiens) (UniProt Q01959); details: Compound concentration 10.0 uM
[22] = molecular target: Mitogen-activated protein kinase kinase kinase 19 (Homo sapiens, UniProt Q56UN5); experiment: NanoBRET with MAP3K19
[23] = molecular target: Dual specificity mitogen-activated protein kinase kinase 5 (Homo sapiens, UniProt Q13163); experiment: NanoBRET with MAP2K5
[24] = molecular target: Receptor-type tyrosine-protein kinase FLT3 (Homo sapiens, UniProt P36888); experiment: NanoBRET with FTL3
[25] = molecular target: T2, Serine/threonine-protein kinase TBK1 (Homo sapiens, UniProt Q9UHD2); experiment: Biochemical assay (high ATP) with TBK1
[26] = molecular target: T2, Serine/threonine-protein kinase TBK1; experiment: cell-based
[27] = Compound concentration 1000.0 nM
[28] = Compound concentration 100.0 nM

T1 sequence (P41595 whole entry): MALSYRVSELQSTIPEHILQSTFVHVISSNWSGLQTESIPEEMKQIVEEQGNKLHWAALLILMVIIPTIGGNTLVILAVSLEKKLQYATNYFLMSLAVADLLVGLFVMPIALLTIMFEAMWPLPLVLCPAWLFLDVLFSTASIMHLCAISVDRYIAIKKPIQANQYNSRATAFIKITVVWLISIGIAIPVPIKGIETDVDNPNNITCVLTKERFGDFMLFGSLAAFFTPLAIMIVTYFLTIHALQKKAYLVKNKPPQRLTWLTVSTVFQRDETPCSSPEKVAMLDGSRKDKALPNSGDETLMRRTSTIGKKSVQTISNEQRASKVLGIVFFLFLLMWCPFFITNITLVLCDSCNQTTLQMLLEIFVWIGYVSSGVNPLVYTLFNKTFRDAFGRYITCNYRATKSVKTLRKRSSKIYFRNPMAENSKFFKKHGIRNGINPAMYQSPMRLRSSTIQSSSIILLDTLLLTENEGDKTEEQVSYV
Sequence of Macrophage colony-stimulating factor 1 receptor (Homo sapiens) (P07333 whole entry): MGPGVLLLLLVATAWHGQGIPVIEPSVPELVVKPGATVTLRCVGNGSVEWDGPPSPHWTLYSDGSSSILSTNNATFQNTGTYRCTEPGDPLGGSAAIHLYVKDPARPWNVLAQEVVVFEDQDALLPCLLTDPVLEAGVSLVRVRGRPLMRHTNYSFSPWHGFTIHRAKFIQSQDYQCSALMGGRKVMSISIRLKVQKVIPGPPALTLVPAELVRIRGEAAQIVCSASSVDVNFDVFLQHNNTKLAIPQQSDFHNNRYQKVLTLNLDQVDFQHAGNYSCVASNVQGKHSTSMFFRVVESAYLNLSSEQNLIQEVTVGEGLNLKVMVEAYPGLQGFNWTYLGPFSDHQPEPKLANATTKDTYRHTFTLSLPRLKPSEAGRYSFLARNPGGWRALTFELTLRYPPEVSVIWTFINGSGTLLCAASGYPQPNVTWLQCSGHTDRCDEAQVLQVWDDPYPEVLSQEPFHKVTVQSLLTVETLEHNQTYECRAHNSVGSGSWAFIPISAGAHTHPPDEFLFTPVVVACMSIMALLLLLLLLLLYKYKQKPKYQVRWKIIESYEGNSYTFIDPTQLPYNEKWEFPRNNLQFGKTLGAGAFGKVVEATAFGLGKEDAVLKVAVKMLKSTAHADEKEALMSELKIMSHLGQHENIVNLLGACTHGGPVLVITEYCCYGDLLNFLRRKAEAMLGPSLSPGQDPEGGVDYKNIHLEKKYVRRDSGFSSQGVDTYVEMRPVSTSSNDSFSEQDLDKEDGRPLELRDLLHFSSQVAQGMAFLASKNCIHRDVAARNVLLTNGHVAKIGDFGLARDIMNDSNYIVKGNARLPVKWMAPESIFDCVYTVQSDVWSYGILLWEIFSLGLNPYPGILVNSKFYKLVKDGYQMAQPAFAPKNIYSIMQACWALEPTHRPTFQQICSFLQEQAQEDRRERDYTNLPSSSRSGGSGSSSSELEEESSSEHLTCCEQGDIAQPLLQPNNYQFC
Sequence of RAC-alpha serine/threonine-protein kinase (Homo sapiens) (P31749 whole entry, canonical isoform): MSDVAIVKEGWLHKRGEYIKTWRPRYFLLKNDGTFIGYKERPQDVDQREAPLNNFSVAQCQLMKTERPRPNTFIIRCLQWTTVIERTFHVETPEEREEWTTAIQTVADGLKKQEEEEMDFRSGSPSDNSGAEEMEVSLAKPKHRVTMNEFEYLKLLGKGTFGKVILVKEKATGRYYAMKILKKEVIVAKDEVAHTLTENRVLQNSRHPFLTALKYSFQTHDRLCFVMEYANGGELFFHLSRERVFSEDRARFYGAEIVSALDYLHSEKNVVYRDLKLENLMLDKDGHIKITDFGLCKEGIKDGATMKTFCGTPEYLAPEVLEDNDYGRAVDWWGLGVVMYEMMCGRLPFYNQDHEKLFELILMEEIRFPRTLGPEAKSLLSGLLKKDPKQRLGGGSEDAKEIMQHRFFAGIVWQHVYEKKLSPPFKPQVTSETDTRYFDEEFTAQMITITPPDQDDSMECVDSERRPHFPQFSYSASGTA
Sequence of Mast/stem cell growth factor receptor Kit (Homo sapiens) (P10721 whole entry): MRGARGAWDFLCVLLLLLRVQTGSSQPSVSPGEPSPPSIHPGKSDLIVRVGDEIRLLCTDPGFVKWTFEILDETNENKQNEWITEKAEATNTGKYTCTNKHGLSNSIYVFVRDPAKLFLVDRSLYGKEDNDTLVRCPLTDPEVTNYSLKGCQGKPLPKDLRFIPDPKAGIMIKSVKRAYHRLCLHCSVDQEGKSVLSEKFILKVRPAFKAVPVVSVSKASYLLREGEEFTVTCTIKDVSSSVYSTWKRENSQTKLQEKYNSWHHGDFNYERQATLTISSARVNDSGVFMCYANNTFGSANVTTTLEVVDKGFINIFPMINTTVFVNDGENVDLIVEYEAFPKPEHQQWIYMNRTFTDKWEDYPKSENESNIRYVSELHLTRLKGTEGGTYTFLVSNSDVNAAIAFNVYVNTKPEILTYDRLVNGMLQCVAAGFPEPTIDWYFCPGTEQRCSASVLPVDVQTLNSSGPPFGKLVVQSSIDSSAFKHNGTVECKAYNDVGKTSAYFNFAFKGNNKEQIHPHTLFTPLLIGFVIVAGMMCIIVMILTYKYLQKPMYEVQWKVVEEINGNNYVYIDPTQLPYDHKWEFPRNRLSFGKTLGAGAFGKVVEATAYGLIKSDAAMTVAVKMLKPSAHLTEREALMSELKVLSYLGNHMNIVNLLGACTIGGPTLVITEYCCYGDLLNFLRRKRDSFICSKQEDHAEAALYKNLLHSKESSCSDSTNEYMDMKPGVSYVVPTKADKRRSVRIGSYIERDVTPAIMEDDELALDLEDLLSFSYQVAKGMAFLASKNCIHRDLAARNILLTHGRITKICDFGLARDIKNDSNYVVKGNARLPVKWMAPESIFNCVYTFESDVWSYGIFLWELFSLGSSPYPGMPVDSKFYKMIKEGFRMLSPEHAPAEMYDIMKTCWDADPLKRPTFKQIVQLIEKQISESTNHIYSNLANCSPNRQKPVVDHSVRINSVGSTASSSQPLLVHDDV
Sequence of Bone morphogenetic protein receptor type-2 (Homo sapiens) (Q13873 whole entry): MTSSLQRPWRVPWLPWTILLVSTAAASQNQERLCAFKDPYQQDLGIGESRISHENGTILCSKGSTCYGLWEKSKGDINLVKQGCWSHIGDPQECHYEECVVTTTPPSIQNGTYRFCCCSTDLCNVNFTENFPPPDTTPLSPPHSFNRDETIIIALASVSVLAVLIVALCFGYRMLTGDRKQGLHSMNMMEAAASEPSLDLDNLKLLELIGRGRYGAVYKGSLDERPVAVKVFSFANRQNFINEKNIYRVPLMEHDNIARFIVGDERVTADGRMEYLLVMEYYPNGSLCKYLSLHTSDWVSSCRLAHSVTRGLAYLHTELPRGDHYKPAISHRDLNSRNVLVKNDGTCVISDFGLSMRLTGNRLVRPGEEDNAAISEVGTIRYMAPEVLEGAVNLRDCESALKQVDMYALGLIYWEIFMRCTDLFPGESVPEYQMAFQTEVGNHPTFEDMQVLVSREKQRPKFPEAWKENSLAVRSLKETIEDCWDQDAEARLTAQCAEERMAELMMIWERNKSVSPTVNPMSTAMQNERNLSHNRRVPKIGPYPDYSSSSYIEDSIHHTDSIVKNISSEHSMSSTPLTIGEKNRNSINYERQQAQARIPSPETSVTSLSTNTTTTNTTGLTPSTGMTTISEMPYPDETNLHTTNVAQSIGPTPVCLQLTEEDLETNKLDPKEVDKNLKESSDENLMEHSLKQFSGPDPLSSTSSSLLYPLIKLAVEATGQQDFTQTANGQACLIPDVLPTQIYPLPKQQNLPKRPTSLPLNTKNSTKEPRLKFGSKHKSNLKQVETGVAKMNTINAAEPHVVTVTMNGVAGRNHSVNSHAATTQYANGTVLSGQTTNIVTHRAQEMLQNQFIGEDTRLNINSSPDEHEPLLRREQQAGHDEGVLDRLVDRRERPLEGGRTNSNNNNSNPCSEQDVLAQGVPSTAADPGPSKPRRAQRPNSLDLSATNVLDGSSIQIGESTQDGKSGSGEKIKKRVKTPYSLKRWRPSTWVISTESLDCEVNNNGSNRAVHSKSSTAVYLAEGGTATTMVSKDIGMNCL
Sequence of Serine/threonine-protein kinase B-raf (Homo sapiens), P15056 [V600E] (P15056 whole entry V600E): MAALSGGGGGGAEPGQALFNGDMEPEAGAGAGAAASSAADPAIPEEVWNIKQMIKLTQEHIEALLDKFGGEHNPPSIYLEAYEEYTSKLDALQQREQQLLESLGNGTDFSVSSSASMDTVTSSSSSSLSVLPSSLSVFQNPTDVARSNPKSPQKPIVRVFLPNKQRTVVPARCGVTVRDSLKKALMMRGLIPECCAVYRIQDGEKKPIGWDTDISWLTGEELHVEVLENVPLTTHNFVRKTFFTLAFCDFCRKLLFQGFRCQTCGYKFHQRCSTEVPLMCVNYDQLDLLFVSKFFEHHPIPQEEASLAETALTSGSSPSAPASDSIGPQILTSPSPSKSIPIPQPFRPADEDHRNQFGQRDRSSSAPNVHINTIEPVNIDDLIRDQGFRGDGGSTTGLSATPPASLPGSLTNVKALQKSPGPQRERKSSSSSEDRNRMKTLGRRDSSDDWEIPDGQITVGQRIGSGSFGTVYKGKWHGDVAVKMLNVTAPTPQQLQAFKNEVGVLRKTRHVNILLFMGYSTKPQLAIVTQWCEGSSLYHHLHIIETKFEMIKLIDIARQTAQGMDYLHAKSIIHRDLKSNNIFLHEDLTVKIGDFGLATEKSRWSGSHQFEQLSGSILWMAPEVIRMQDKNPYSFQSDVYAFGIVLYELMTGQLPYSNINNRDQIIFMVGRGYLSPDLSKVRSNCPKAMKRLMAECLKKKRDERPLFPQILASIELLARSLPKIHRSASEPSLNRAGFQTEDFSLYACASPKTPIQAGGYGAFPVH

Compound: CN(C)c1ncnc(-c2ccc3nc(Nc4cc(CN5CCN(C(=O)CC(F)(F)F)CC5)ccn4)[nH]c3c2)c1Cl [BAY-440]
- residual activity [1, 27]: 50%
- residual activity [2, 27]: 96%
- residual activity [3, 27]: 4.2%
- inhibition [4]: 39%
- inhibition [5]: -4.19%
- residual activity [6, 27]: 100%
- residual activity [7, 27]: 100%
- residual activity [8, 27]: 71%
- residual activity [9, 27]: 100%
- residual activity [10, 27]: 96%
- residual activity [11, 27]: 76%
- residual activity [12, 27]: 100%
- residual activity [13, 27]: 100%
- residual activity [14, 27]: 84%
- residual activity [15, 27]: 79%
- residual activity [16, 27]: 61%

Compound: C[C@H](c1ccnc(Nc2nc3ccc(-c4cc(N(C)C)ncn4)cc3[nH]2)c1)N1CCN(C(=O)CC(F)(F)F)CC1 [BAY-985]
- IC50 [17]: 1.73 µM (active)
- residual activity [1, 28]: 90%
- residual activity [2, 28]: 100%
- Ki ([18]; read-out: Ki): 1310 nM
- Ki ([18]; read-out: pKi (converted)): 1290 nM
- residual activity [3, 28]: 79%
- inhibition [4]: 60%
- inhibition [19]: 23%
- IC50 [20]: > 20 µM (not active)
- residual activity [6, 28]: 77%
- inhibition [21]: 30.5%
- IC50 [22]: > 20 µM (not active)
- residual activity [7, 28]: 100%
- residual activity [8, 28]: 90%
- IC50 [23]: > 20 µM (not active)
- IC50 [24]: > 20 µM (not active)
- IC50 [25]: 18 nM (active)
- IC50 [26]: 312 nM (active)
- residual activity [9, 28]: 100%
- residual activity [10, 28]: 86%
- residual activity [11, 28]: 92%
- residual activity [12, 28]: 100%
- residual activity [13, 28]: 81%
- residual activity [14, 28]: 100%
- residual activity [15, 28]: 100%
- residual activity [16, 28]: 100%
